Experimental findings from patent US12145944B2, “Imidazopyrimidines as EED inhibitors and the use thereof” (THE REGENTS OF THE UNIVERSITY OF MICHIGAN, priority 2019, dated 2024) are described below.

Like-named read-outs stand apart in the source and are kept apart here.

The subject of assay [1] is KARPAS422 human B cell lymphoma cell. Briefly: Cell proliferation, KARPAS422, 7 day treatment (WST-8). In kind it is cell-based. The conditions noted are these: Homo sapiens, KARPAS-422, 168 h. The procedure, abridged: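 KARPAS422 cells seeded at 2 000-3 000 cells/well and exposed to serially diluted compounds for 7 days at 37 °C, 5% CO2. Growth measured by WST-8 (1-4 h, absorbance 450 nm). Readings normalized to DMSO-treated cells; IC50 from nonlinear regression.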
On the technique in general: Formazan colour is commonly taken as a measure of viable cells.

Another assay deals with Pfeiffer cell line. Briefly: Anti-proliferative activity, Pfeiffer cell line, 7 day treatment. The conditions noted are these: Homo sapiens, 168 h. It is filed as cell-based. On the procedure: “N/A” stands for “not assessed”.
To assess the effect of PRC2 inhibition on cell growth, cells were seeded in 96-well cell culture plates at a density of 2 000-3 000 cells/well in 200 µL of culture medium, and treated with serially diluted compounds for 7 days at 37° C. in an atmosphere of 5% CO2. Cell growth was evaluated by a […] WST-8 assay (Dojindo Molecular Technologies) using a Tecan Infinite M1000 multimode microplate reader (Tecan, Morrisville, NC). The WST-8 reagent was added to the plate, incubated for 1-4 h, and read at 450 nm. The readings were normalized to the DMSO-treated cells, and the IC50 was calculated by nonlinear regression analysis using GraphPad Prism 6 software

[2] abbreviates: anti-proliferative IC50 class, Karpas 422 cell line, 7 day treatment, read-out: Karpas Cell line.
The mark [3] stands for this setting: anti-proliferative IC50 class, Pfeiffer cell line, 7 day treatment, read-out: Pfeiffer Cell line.
Where [4] appears, read: anti-proliferative IC50, Karpas 422 cell line, 7 day treatment, read-out: Karpas Cell line.
Where [5] appears, read: anti-proliferative IC50, Pfeiffer cell line, 7 day treatment, read-out: Pfeiffer Cell line.
Setting [6] is: read-out: Karpas Cell line (nM).
[7] abbreviates: Pfeiffer, read-out: Pfeiffer Cell line (nM).

As to `CC(C)c1ccc2c(n1)CN(CC(F)F)C(=O)c1ncn3c(NCc4c(F)ccc5c4CCO5)ncc-2c13` [E 47, 4-(2,2-difluoroethyl)-12-(((5-fluoro-2,3-dihydrobenzofuran-4-yl)methyl)amino)-7-isopropyl-4,5-dihydro-3H-2,4,6,11,12a-pentaazabenzo[4,5]cycloocta[1,2,3-cd]inden-3-one], the IC50 (in assay [1] (setting [2]); in the assay with Pfeiffer cell line (setting [3])) was < 10 nM each time.

As for `Cc1cc2c(cn1)-c1cnc(NCc3c(F)ccc4c3CCO4)n3cnc(c13)C(=O)N(C(C)C)C2` [E 2, 12-(((5-fluoro-2,3-dihydrobenzofuran-4-yl)methyl)amino)-4-isopropyl-7-methyl-4,5-dihydro-3H-2,4,8,11,12a-pentaazabenzo[4,5]cycloocta[1,2,3-cd]inden-3-one], the IC50 (in assay [1] (setting [2]); with Pfeiffer cell line (setting [3])) was < 10 nM in each case.

`O=C1OCc2cnc(C(F)(F)F)cc2-c2cnc(NCc3c(F)ccc4c3CCO4)n3cnc1c23` [compound 32, 12-(((5-fluoro-2,3-dihydrobenzofuran-4-yl)methyl)amino)-8-(trifluoromethyl)-3H,5H-4-oxa-2,7,11,12a-tetraazabenzo[4,5]cycloocta[1,2,3-cd]inden-3-one]: the results for the IC50 (in assay [1] (setting [4]); in the assay on Pfeiffer cell line (setting [5])) were 84.4 nM and 11.6 nM, respectively.

As for `CC(C)N1Cc2cc(C(F)F)ncc2-c2cnc(NCc3c(F)ccc4c3CCO4)n3cnc(c23)C1=O` [E 11, 7-(difluoromethyl)-12-(((5-fluoro-2,3-dihydrobenzofuran-4-yl)methyl)amino)-4-isopropyl-4,5-dihydro-3H-2,4,8,11,12a-pentaazabenzo[4,5]cycloocta[1,2,3-cd]inden-3-one], the IC50 (in assay [1] (setting [2]); in the assay on Pfeiffer cell line (setting [3])) was < 10 nM throughout.

Consider `CN1Cc2ccc(C(F)(F)F)nc2-c2cnc(NCc3c(F)ccc4c3CCO4)n3cnc(c23)C1=O` [compound 39, 12-(((5-fluoro-2,3-dihydrobenzofuran-4-yl)methyl)amino)-4-methyl-8-(trifluoromethyl)-4,5-dihydro-3H-2,4,9,11,12a-pentaazabenzo[4,5]cycloocta[1,2,3-cd]inden-3-one], for which the IC50 in assay [1] (setting [4]) was > 100 nM; with Pfeiffer cell line (setting [5]) it was 22.7 nM.

Turning to `Fc1ccc2c(c1CNc1ncc3c4c(ncn14)-c1nccn1Cc1nc(C(F)(F)F)ccc1-3)CCO2` [E 32, N-((5-fluoro-2,3-dihydrobenzofuran-4-yl)methyl)-8-(trifluoromethyl)-6H-2,3,5a,7,12,13a-hexaazabenzo[4,5]cyclopenta[7,8]cycloocta[1,2,3-cd]inden-13-amine], the IC50 is 10 to 100 nM in assay [1] (setting [2]) and < 10 nM with Pfeiffer cell line (setting [3]).

In the case of `O=C1NCCc2ccccc2-c2cnc(NCc3c(F)ccc4c3CCO4)n3cnc1c23` [E 28, 13-(((5-fluoro-2,3-dihydrobenzofuran-4-yl)methyl)amino)-5,6-dihydro-2,4,12,13a-tetraazabenzo[4,5]cyclonona[1,2,3-cd]inden-3(4H)-one], the IC50 in assay [1] (setting [2]) was > 100 nM; in the assay with Pfeiffer cell line (setting [3]), 10 to 100 nM.

For `O=C1c2ncn3c(NCc4c(F)ccc5c4CCO5)ncc(c23)-c2ccc(C(F)(F)F)nc2CN1CC(F)F` [E 8, 4-(2,2-difluoroethyl)-12-(((5-fluoro-2,3-dihydrobenzofuran-4-yl)methyl)amino)-7-(trifluoromethyl)-4,5-dihydro-3H-2,4,6,11,12a-pentaazabenzo[4,5]cycloocta[1,2,3-cd]inden-3-one], the IC50 (in assay [1] (setting [2]); in the assay on Pfeiffer cell line (setting [3])) was < 10 nM throughout.

As to `Cc1ccc2c(n1)CCNC(=O)c1ncn3c(NCc4c(F)ccc5c4CCO5)ncc-2c13` [E 29, 13-(((5-fluoro-2,3-dihydrobenzofuran-4-yl)methyl)amino)-8-methyl-5,6-dihydro-2,4,7,12,13a-pentaazabenzo[4,5]cyclonona[1,2,3-cd]inden-3(4H)-one], the IC50 (in assay [1] (setting [2]); in the assay with Pfeiffer cell line (setting [3])) was 10 to 100 nM throughout.

Consider `O=C1c2ncn3c(NCc4c(F)ccc5c4CCO5)ncc(c23)-c2ccc(C3COCCO3)nc2CN1CC(F)(F)F` (stereo not shown) [E 48, 7-(1,4-dioxan-2-yl)-12-(((5-fluoro-2,3-dihydrobenzofuran-4-yl)methyl)amino)-4-(2,2,2-trifluoroethyl)-4,5-dihydro-3H-2,4,6,11,12a-pentaazabenzo[4,5]cycloocta[1,2,3-cd]inden-3-one], for which the IC50 (in assay [1] (setting [2]); with Pfeiffer cell line (setting [3])) was < 10 nM throughout.

As to `O=C1NCc2c(F)cccc2-c2cnc(NCc3c(F)ccc4c3CCO4)n3cnc1c23` [compound 20, 6-fluoro-12-(((5-fluoro-2,3-dihydrobenzofuran-4-yl)methyl)amino)-4,5-dihydro-3H-2,4,11,12a-tetraazabenzo[4,5]cycloocta[1,2,3-cd]inden-3-one], the values for the IC50 (in assay [1] (setting [4]); with Pfeiffer cell line (setting [5])) were 13.9 nM and 0.9 nM, respectively.

As to `CC(C)N1CCc2cc(C(F)(F)F)ncc2-c2cnc(NCc3c(F)ccc4c3CCO4)n3cnc(c23)C1=O` [E 31, 13-(((5-fluoro-2,3-dihydrobenzofuran-4-yl)methyl)amino)-4-isopropyl-8-(trifluoromethyl)-5,6-dihydro-2,4,9,12,13a-pentaazabenzo[4,5]cyclonona[1,2,3-cd]inden-3(4H)-one], the IC50 (in assay [1] (setting [2]); in the assay with Pfeiffer cell line (setting [3])) was 10 to 100 nM each time.

On to `CS(=O)(=O)c1ccc(-c2cnc(NCc3c(F)ccc4c3CCO4)n3cnc(S(C)(=O)=O)c23)cc1` [compound 100, N-((5-fluoro-2,3-dihydrobenzofuran-4-yl)methyl)-1-(methylsulfonyl)-8-(4 (methylsulfonyl)phenyl)imidazo[1,5-c]pyrimidin-5-amine], for which the results for the IC50 (in assay [1] (setting [6]); with Pfeiffer cell line (setting [7])) were 0.26 nM and 1.05 nM, respectively.

`CN1CCC(CN2Cc3nc(C(F)(F)F)ccc3-c3cnc(NCc4c(F)ccc5c4CCO5)n4cnc(c34)C2=O)CC1` [compound 42, 12-(((5-fluoro-2,3-dihydrobenzofuran-4-yl)methyl)amino)-4-((1-methylpiperidin-4-yl)methyl)-7-(trifluoromethyl)-4,5-dihydro-3H-2,4,6,11,12a-pentaazabenzo[4,5]cycloocta[1,2,3-cd]inden-3-one]: the IC50 in assay [1] (setting [4]) stood at 4.01 nM; in the assay with Pfeiffer cell line (setting [5]), 4.19 nM.

As to `CCc1ccc2c(n1)CN(CC(F)(F)F)C(=O)c1ncn3c(NCc4c(F)ccc5c4CCO5)ncc-2c13` [E 12, 7-ethyl-12-(((5-fluoro-2,3-dihydrobenzofuran-4-yl)methyl)amino)-4-(2,2,2-trifluoroethyl)-4,5-dihydro-3H-2,4,6,11,12a-pentaazabenzo[4,5]cycloocta[1,2,3-cd]inden-3-one], the IC50 (in assay [1] (setting [2]); in the assay with Pfeiffer cell line (setting [3])) was < 10 nM in each case.

`Cc1ncccc1-c1cnc(NCc2c(F)ccc3c2CCO3)n2cnc(S(C)(=O)=O)c12` [compound 101, N-((5-fluoro-2,3-dihydrobenzofuran-4-yl)methyl)-8-(2-methylpyridin-3-yl)-1-(methylsulfonyl)imidazo[1,5-c]pyrimidin-5-amine]: the IC50 in assay [1] (setting [6]) worked out at 5.59 nM; in the assay on Pfeiffer cell line (setting [7]) it was 1.76 nM.

For the compound `Cc1ccc2c(n1)COC(=O)c1ncn3c(NCc4c(F)ccc5c4CCO5)ncc-2c13` [compound 18, 12-(((5-fluoro-2,3-dihydrobenzofuran-4-yl)methyl)amino)-7-methyl-3H,5H-4-oxa-2,6,11,12a-tetraazabenzo[4,5]cycloocta[1,2,3-cd]inden-3-one], the IC50 is 15.3 nM in assay [1] (setting [4]) and 0.73 nM in the assay with Pfeiffer cell line (setting [5]).
